Experimental data: paper PMC6749236, “Synthesis of Novel 2-(Het)arylpyrrolidine Derivatives and Evaluation of Their Anticancer and Anti-Biofilm Activity” (Molecules, 2019)

Experiments:
[1] = system: Chang liver cell line; experiment: Cytotoxicity assay (Cytell Cell Imaging), normal cell line; type: cell-based; details: Homo sapiens, read-out: IC50 Normal Cell Line Chang Liver
[2] = system: M-Hela; experiment: Cytotoxicity assay (Cytell Cell Imaging, DAPI/propidium iodide), cancer cell line; type: cell-based; details: Homo sapiens, M-HeLa, read-out: IC50 Cancer Cell Line M-Hela

SMILES | IC50 [1] | melting point | IC50 [2]
O=C(Nc1ccccc1)N1CCCC1c1c(O)c2ccccc2oc1=O (stereo not drawn) [8b, 2-(4-Hydroxy-2-oxo-2H-chromen-3-yl)-N-phenylpyrrolidine-1-carboxamide] | > 100 µM | 179 to 180 °C | > 100 µM
COc1ccc(NC(=O)N2CCCC2c2c(O)cc(C)oc2=O)cc1 (stereo not drawn) [7c, 2-(4-Hydroxy-6-methyl-2-oxo-2H-pyran-3-yl)-N-(4-methoxyphenyl)pyrrolidine-1-carboxamide] | > 100 µM | 168 to 169 °C | > 100 µM
COc1ccc(NC(=O)N2CCCC2c2c(O)c3ccccc3oc2=O)cc1 (stereo not drawn) [8c, 2-(4-Hydroxy-2-oxo-2H-chromen-3-yl)-N-(4-methoxyphenyl)pyrrolidine-1-carboxamide] | > 100 µM | 152 to 153 °C | > 100 µM
O=C(Nc1ccc(Br)cc1)N1CCCC1c1c(O)c2ccccc2oc1=O (stereo not drawn) [8d, N-(4-Bromophenyl)-2-(4-hydroxy-2-oxo-2H-chromen-3-yl)pyrrolidine-1-carboxamide] | > 100 µM | 179 °C | > 100 µM
O=C(NC1CCCCC1)N1CCCC1c1cc2c(cc1O)OCO2 (stereo not drawn) [5g, N-Cyclohexyl-2-(6-hydroxybenzo[d][1,3]dioxol-5-yl)pyrrolidine-1-carboxamide] | > 100 µM | 159 to 160 °C | > 100 µM
CCCCCCNC(=O)N1CCCC1c1cc2c(cc1O)OCO2 (stereo not drawn) [5f, N-Hexyl-2-(6-hydroxybenzo[d][1,3]dioxol-5-yl)pyrrolidine-1-carboxamide] | > 100 µM | 91 to 93 °C | > 100 µM
CCCCCCNC(=O)N1CCCC1c1c(O)cc(C)oc1=O (stereo not drawn) [7f, N-Hexyl-2-(4-hydroxy-6-methyl-2-oxo-2H-pyran-3-yl)pyrrolidine-1-carboxamide] | > 100 µM | 137 to 138 °C | > 100 µM
NC(=O)N1CCCC1c1cc2c(cc1O)OCO2 (stereo not drawn) [5a, 2-(6-Hydroxybenzo[d][1,3]dioxol-5-yl)pyrrolidine-1-carboxamide] | > 100 µM | 206 to 207 °C | > 100 µM
CCCCCCNC(=O)N1CCCC1c1ccc(Nc2c([N+](=O)[O-])c(Cl)cc3c2no[n+]3[O-])cc1O (stereo not drawn) [6f, 6-Chloro-4-((4-(1-(hexylcarbamoyl)pyrrolidin-2-yl)-3-hydroxyphenyl)amino)-5-nitrobenzo[c][1,2,5]oxadiazole 1-oxide] | 57 ± 4.3 µM | 121 to 122 °C (dec.) | 47 ± 2.9 µM
COc1ccc(NC(=O)N2CCCC2c2cc3c(cc2O)OCO3)cc1 (stereo not drawn) [5c, 2-(6-Hydroxybenzo[d][1,3]dioxol-5-yl)-N-(4-methoxyphenyl)pyrrolidine-1-carboxamide] | > 100 µM | 112 to 114 °C | > 100 µM
O=C(NC1CCCCC1)N1CCCC1c1c(O)c2ccccc2oc1=O (stereo not drawn) [8g, N-Cyclohexyl-2-(4-hydroxy-2-oxo-2H-chromen-3-yl)pyrrolidine-1-carboxamide] | > 100 µM | 166 to 167 °C | > 100 µM
O=C(Nc1ccc(Br)cc1)N1CCCC1c1cc2c(cc1O)OCO2 (stereo not drawn) [5d, N-(4-Bromophenyl)-2-(6-hydroxybenzo[d][1,3]dioxol-5-yl)pyrrolidine-1-carboxamide] | > 100 µM | 164 °C | > 100 µM
O=C(Nc1ccc(F)cc1)N1CCCC1c1c(O)c2ccccc2oc1=O (stereo not drawn) [8e, N-(4-Fluorophenyl)-2-(4-hydroxy-2-oxo-2H-chromen-3-yl)pyrrolidine-1-carboxamide] | > 100 µM | 165 °C | > 100 µM
Cc1cc(O)c(C2CCCN2C(=O)NC2CCCCC2)c(=O)o1 (stereo not drawn) [7g, N-Cyclohexyl-2-(4-hydroxy-6-methyl-2-oxo-2H-pyran-3-yl)pyrrolidine-1-carboxamide] | > 100 µM | 184 to 185 °C | > 100 µM
Cc1cc(O)c(C2CCCN2C(=O)Nc2ccccc2)c(=O)o1 (stereo not drawn) [7b, 2-(4-Hydroxy-6-methyl-2-oxo-2H-pyran-3-yl)-N-phenylpyrrolidine-1-carboxamide] | > 100 µM | 190 to 191 °C | > 100 µM
CCCCCCNC(=O)N1CCCC1c1c(O)c2ccccc2oc1=O (stereo not drawn) [8f, N-Hexyl-2-(4-hydroxy-2-oxo-2H-chromen-3-yl)pyrrolidine-1-carboxamide] | > 100 µM | 124 to 125 °C | > 100 µM
Cc1cc(O)c(C2CCCN2C(=O)Nc2ccc(F)cc2)c(=O)o1 (stereo not drawn) [7e, N-(4-Fluorophenyl)-2-(4-hydroxy-6-methyl-2-oxo-2H-pyran-3-yl)pyrrolidine-1-carboxamide] | > 100 µM | 177 to 178 °C | > 100 µM
